Reference: ChEMBL document CHEMBL4316606, “Discovery of novel 2,3-dihydro-1H-inden-1-amine derivatives as selective monoamine oxidase B inhibitors” (Bioorg Med Chem Lett, 2019)

Key:
[1] = target: T1, Amine oxidase [flavin-containing] B (Homo sapiens, UniProt P27338); test: Inhibition of recombinant human MAOB expressed in baculovirus infected BTI insect cells using p-tyramine as substrate preincubated for 30 mins followed by substrate addition and measured over 15 mins by Amplex red reagent/horseradish peroxidase coupled fluorescence assay
T1 sequence (P27338 whole entry): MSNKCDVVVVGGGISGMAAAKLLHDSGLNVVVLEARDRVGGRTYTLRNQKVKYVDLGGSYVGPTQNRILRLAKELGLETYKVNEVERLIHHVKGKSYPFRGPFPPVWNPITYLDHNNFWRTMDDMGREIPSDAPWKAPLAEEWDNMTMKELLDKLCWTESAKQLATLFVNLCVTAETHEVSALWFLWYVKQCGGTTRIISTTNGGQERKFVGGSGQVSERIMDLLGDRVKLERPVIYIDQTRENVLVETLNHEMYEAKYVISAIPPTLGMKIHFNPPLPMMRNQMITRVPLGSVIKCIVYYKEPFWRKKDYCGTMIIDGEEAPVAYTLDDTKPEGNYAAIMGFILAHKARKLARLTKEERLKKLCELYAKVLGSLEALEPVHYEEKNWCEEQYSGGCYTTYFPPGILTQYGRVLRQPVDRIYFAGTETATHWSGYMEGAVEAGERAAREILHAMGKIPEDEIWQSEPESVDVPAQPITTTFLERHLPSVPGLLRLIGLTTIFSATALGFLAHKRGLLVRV

Homo sapiens = organism: Homo sapiens; test: Selectivity index, ratio of IC50 for recombinant human MAOA expressed in baculovirus infected BTI insect cells to IC50 for recombinant human MAOB expressed in baculovirus infected BTI insect cells
[2] = target: T2, Amine oxidase [flavin-containing] A (Homo sapiens, UniProt P21397); test: Inhibition of recombinant human MAOA expressed in baculovirus infected BTI insect cells using p-tyramine as substrate preincubated for 30 mins followed by substrate addition and measured over 15 mins by Amplex red reagent/horseradish peroxidase coupled fluorescence assay
T2 sequence (P21397 whole entry): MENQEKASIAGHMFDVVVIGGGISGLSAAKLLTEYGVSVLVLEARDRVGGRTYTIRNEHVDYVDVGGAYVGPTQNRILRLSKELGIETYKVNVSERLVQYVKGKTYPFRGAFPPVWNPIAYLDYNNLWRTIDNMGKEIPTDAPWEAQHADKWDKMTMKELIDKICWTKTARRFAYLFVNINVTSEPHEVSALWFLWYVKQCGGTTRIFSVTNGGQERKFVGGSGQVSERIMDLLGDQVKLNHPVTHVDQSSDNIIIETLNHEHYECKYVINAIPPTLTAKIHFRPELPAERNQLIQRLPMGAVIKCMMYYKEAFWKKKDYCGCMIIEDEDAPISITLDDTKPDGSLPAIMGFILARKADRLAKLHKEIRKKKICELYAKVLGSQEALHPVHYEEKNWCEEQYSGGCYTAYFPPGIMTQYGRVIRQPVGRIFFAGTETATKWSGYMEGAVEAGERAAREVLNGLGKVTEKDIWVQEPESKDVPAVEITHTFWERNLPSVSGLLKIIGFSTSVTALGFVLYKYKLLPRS

SMILES | IC50 [1] [nM] | IC50 [2] [µM] | Ratio IC50 (Homo sapiens)
C#CCNC1CCc2c(NCc3cccc(C)c3)cccc21 (stereo not drawn) | 710 |  | 
C#CCNC1CCc2c(OCCc3cccc4ccccc34)cccc21 (stereo not drawn) | 1900 |  | 
C#CCNC1CCc2c(OCCc3cc(NC(=O)C(C)(C)C)ccc3F)cccc21 (stereo not drawn) | > 20000 |  | 
C#CCNC1CCc2c(OCCc3cc(NC(=O)c4cccc(F)c4)ccc3Cl)cccc21 (stereo not drawn) | > 20000 |  | 
C#CCNC1CCc2c(SCc3ccc(C(C)(C)C)cc3)cccc21 (stereo not drawn) | > 20000 |  | 
C#CCNC1CCc2c(NCc3cccc(Br)c3)cccc21 (stereo not drawn) | 110 | 94.3 | 857
C#CCNC1CCc2c(OCCc3cc(NC(=O)c4ccccc4)ccc3Cl)cccc21 (stereo not drawn) | > 20000 |  | 
C#CCNC1CCc2c(OCCc3cccc(NC(=O)c4ccc(Cl)cc4)c3)cccc21 (stereo not drawn) | 360 |  | 
C#CCNC1CCc2c(OCCc3cc(NC(C)=O)ccc3Cl)cccc21 (stereo not drawn) | 590 | 85.2 | 144
C#CCNC1CCc2c(NCc3ccc(C)cc3)cccc21 (stereo not drawn) | 250 | 43.1 | 172
C#CCNC1CCc2c(SCc3ccc(Cl)cc3)cccc21 (stereo not drawn) | 180 | 0.23 | 1.2
C#CCNC1CCc2c(NCc3cccc(F)c3)cccc21 (stereo not drawn) | 1860 |  | 
C#CCNC1CCc2c(SCc3ccc(F)cc3)cccc21 (stereo not drawn) | 240 | < 0.1 | 
C#CCNC1CCc2c(OCCc3cc(NC(=O)c4ccc(Cl)cc4)ccc3Cl)cccc21 (stereo not drawn) | > 20000 |  | 

Continued, in another order:

IC50 [1] [nM] | IC50 [2] [µM] | SMILES | Ratio IC50 (Homo sapiens)
5100 |  | C#CCNC1CCc2c(OCCc3cc(NC(=O)c4ccc(F)cc4)ccc3Cl)cccc21 (stereo not drawn) | 
980 |  | C#CCNC1CCc2c(NCc3ccc(F)cc3)cccc21 (stereo not drawn) | 
> 20000 |  | C#CCNC1CCc2c(NCc3ccccc3)cccc21 (stereo not drawn) | 
2700 |  | C#CCNC1CCc2c(OCc3cccc(F)c3)cccc21 (stereo not drawn) | 
270 | 252 | C#CCNC1CCc2c(OCCc3cc(NC(=O)CO)ccc3Cl)cccc21 (stereo not drawn) | 934
480 | 436 | C#CCNC1CCc2c(OCCc3cc(NC(=O)COC(C)=O)ccc3Cl)cccc21 (stereo not drawn) | 909
